Reference: patent US20100303727A1, “OPTICAL IMAGING AGENTS” (priority 2007, published 2010)
Where two headings read alike, the source gives them in different places. Bridge positions count the residues as written; N and C are the ends. Peptide text beside a SMILES is read from it. * marks the point of attachment. X3 = CC[N+]1=C(/C=C/C=C/C=C2/N(CCCCCC(=O)*)c3ccc(S(=O)(=O)O)cc3C2(C)C)C(C)(C)c2cc(S(=O)(=O)[O-])ccc21; X1 = C[N+]1=C(/C=C/C=C/C=C2/N(CCCCCC(=O)*)c3ccccc3C2(C)C)C(C)(C)c2cc(S(=O)(=O)[O-])ccc21; X2 = NC(=O)COCC(=O)NCCOCCOCCOCCN*

How the values were obtained:
[1] = format: in vitro ADME, mouse
Experimental: Mouse plasma (non-sterile) was purchased from Rockland, Pa., USA. This plasma is stabilized with heparin, sodium. The substance was dissolved in PBS and plasma, respectively, at concentrations 0.1/0.2 mg/mL. Both blank samples (solvent without peptide) and peptide dissolved in plasma/PBS were incubated at 37° C. for about 4 hours. After incubation the proteins were removed by ultrafiltration using non-sterile Ultrafree®-MC centrifuge tubes with filter insert from Millipore Co. (Amicon). The cut-off of the filters was 30,000 NMWL Prior to centrifugation the plasma samples were diluted 1:1 with water. The samples were analysed by HPLC using visible detection.
The substance was dissolved in PBS, concentration 0.1 mg/mL. The fluorescence intensity of the ultracentrifuged samples was measured using Fluoroskan Ascent® FL equipped with plate reader (Thermo Labsystems Oy, Finland). Excitation wavelength was at 646 nm and emission wavelength at 678 nm and measurements were performed at two different concentrations of the substance, 6.5 μg/mL and 23 μg/mL plasma.
The Ultimate 3000 micro liquid chromatograph equipped with UV-Vis detector was applied in this study. The solution has an intense bluish colour and absorbs well at 650 nm.
The chromatography was performed on an X-Terra RP18 column 2.1×150 mm, 3.5 μm particles from Waters using a gradient elution of acetonitrile (ACN) and phosphate buffer (20 mM, pH 7.1); 650 nm detection; flow rate 0.1 mL/min; injection volume: 5 μL. Gradient: initiated at 22% ACN in buffer, increasing linearly to 50% ACN over 12 min; rapid linear increase of gradient to 90% ACN for 2 min followed; then equilibration to the starting mixture. Total analysis time was 20 min, with a retention time for the main peak of ˜9 min. Degradation/impurities were reported as changes in purity of the main peak.

[2] = target: T1, αVβ3 receptor (Homo sapiens, UniProt P05106+P06756); assay: Competition assay using 125I-echistatin on EA-Hy926 membranes; format: binding; details: for Ki: competition with 125I-Echistatin, EA-Hy926 membranes
T1 construct: endogenous in cells; host or cells: EA-Hy926 human endothelial cell line (membrane preparation)
Experimental: A classical competition assay using ^125I-echistatin was performed in order to check the affinity (Ki) of the RGD-Cy^D conjugates (Compounds 1 to 8) towards membranes expressing. the αVβ3 receptor. Ki was determined in receptor competition studies with membranes prepared from human endothelial cells. Membranes from the human endothelial adenocarcinoma cell line EA-Hy926 that express several integrins including αVβ3 were prepared and used as a receptor source. Competitive binding of ^125I-Echistatin, a known […] for several integrins including αVβ3, was carried out with varying concentrations of cold compounds.

[3] = human, plasma
[4] = tested on: collagen; format: binding; details: 1 h 37° C., Ex646/Em678 nm
Experimental: Commercially available collagen-covered 96-well plates were used (BD Biocoat, Art. code BDAA 356649, Becton, Dickinson Biosciences, Two Oak Park, Bedford, Mass. 01730). Triplicate wells were made of each test Compound at 30 nM, 100 nM or 300 nM (1000 nM included in some cases), and the plate was incubated in the plate reader for one hour at 37° C. with shaking every other minute*. The volume in each well was 200 μl. At the end of the incubation, 150 μl supernatant was transferred to an untreated 96-well plate, and the fluorescence was read with excitation at 646 nm and emission at 678 nm wavelengths.
For calculation of the degree of binding, the fluorescence from the supernatants was compared to the fluorescence from 150 μl aliquots with the same initial concentrations. In all cases, median values from 3 wells were used.

[5] = tested on: HT-29 tumour; assay: In vivo optical imaging of HT-29 tumour-bearing mice; details: mean tumour region intensity divided by mean muscle region intensity, iv injection, HT-29 tumours s.c.
Experimental: Female BALB c/A nude (Bom) mice were used in the study. The use of the animals was approved by the local ethics committee. As the animals were immunocompromised, they were housed in individually ventilated cages (IVC, Scanbur BK) supplied with HEPA filtered air. The animals had ad libitum access to “Rat and Mouse nr. 3 Breeding” diet (Scanbur BK) and tap water acidified by addition of HCl to a molar concentration of 1 mM (pH 3.0). In order to protect the animals during handling and all procedures before the imaging procedure, they were handled under conditions of laminar HEPA filtered air.
The animals were allowed an acclimatisation period of at least 5 days before being injected s.c. with HT-29 tumour cell suspensions at two sites (shoulder and left, lower flank) with a nominal dose of 2.5-3×10^6 cells per injection in a volume of 100 μl. The s.c. injections were performed under light gas anaesthesia. […]
Image analysis was performed with custom written MATLAB software. […] The mean signal of the pixel values inside each region was calculated. The mean signal and pixel standard deviation was calculated.
Based on the in-vitro data from example 7-10, in-vivo results from compounds 1, 2, 4 and 6 are presented. Tumour enhancement is quantified by a target to background ratio (TBR) defined as the ratio of the mean tumour region intensity divided by the mean muscle region intensity.

| Ki [2] [nM] | Collagen binding (% bound) ([4]; initial conc. 30 nM) [%] | Collagen binding (% bound) ([4]; initial conc. 100 nM) [%] | Collagen binding (% bound) ([4]; initial conc. 300 nM) [%] | Collagen binding (% bound) ([4]; initial conc. 1000 nM) [%] | Ki (in words) ([2]; summary of Example 10) | SMILES | % main peak area (after 4 h incubation in mouse plasma) [1] [%] | PPB (ranking in words) [3] | Target to background ratio (TBR) [5] |
| --- | --- | --- | --- | --- | --- | --- | --- | --- | --- |
| 1.6 | – | – | – | – | – | CC1(C)C(/C=C/C=C/C=C2/N(CCCS(=O)(=O)O)c3ccc(S(=O)(=O)O)cc3C2(C)CCCCCC(=O)NCCCC[C@@H]2NC(=O)CSC[C@@H](C(=O)NCCOCCOCCOCCNC(=O)COCC(N)=O)NC(=O)[C@H](Cc3ccccc3)NC(=O)[C@@H]3CSSC[C@H](NC2=O)C(=O)N[C@@H](CCCNC(=N)N)C(=O)NCC(=O)N[C@@H](CC(=O)O)C(=O)N3)=[N+](CCCS(=O)(=O)O)c2ccc(S(=O)(=O)O)cc21 (stereo partly drawn) [Compound 6, RGD-Alexa 647 Dye Conjugate] | 100 | lowest | – |
| – | 83.6 | 96.1 | 50.9 | 30.4 | – | CC1(CCCCS(=O)(=O)O)C(/C=C/C=C/C=C2\N(CCCCCC(=O)NCCCC[C@@H]3NC(=O)CSC[C@@H](C(=O)NCCOCCOCCOCCNC(=O)COCC(N)=O)NC(=O)[C@H](Cc4ccccc4)NC(=O)[C@@H]4CSSC[C@H](NC3=O)C(=O)N[C@@H](CCCNC(=N)N)C(=O)NCC(=O)N[C@@H](CC(=O)O)C(=O)N4)c3ccc(S(=O)(=O)O)cc3C2(C)CCCCS(=O)(=O)O)=[N+](Cc2ccccc2)c2ccc(S(=O)(=O)[O-])cc21 (stereo partly drawn) [Compound 5] | 46 | – | – |
| 1.9 | – | – | – | – | – | CC[N+]1=C(/C=C/C=C/C=C2/N(CCCCCC(=O)NCCCC[C@@H]3NC(=O)CSC[C@@H](C(=O)NCCOCCOCCOCCNC(=O)COCC(N)=O)NC(=O)[C@H](Cc4ccccc4)NC(=O)[C@@H]4CSSC[C@H](NC3=O)C(=O)N[C@@H](CCCNC(=N)N)C(=O)NCC(=O)N[C@@H](CC(=O)O)C(=O)N4)c3ccc(S(=O)(=O)O)cc3C2(C)C)C(C)(C)c2cc(S(=O)(=O)[O-])ccc21 [Compound 1, RGD-[Cy5(2)] Dye Conjugate] ({CH2CO}-K(X3)CRGDCFC-X2; disulfide 2-6; thioether N-8) | – | – | – |
| 1.8 | – | – | – | – | – | CC1(CCCCS(=O)(=O)O)C(/C=C/C=C/C=C2/N(CCCCCC(=O)NCCCC[C@@H]3NC(=O)CSC[C@@H](C(=O)NCCOCCOCCOCCNC(=O)COCC(N)=O)NC(=O)[C@H](Cc4ccccc4)NC(=O)[C@@H]4CSSC[C@H](NC3=O)C(=O)N[C@@H](CCCNC(=N)N)C(=O)NCC(=O)N[C@@H](CC(=O)O)C(=O)N4)c3ccc(S(=O)(=O)O)cc3C2(C)C)=[N+](CCCCS(=O)(=O)O)c2ccc(S(=O)(=O)O)cc21 (stereo partly drawn) [Compound 4, RGD-Cy5** Dye Conjugate] | 100 | lowest | – |

Further lines, the compound ahead of its results:

| SMILES | Ki [2] [nM] | Collagen binding (% bound) ([4]; initial conc. 30 nM) [%] | Collagen binding (% bound) ([4]; initial conc. 100 nM) [%] | Collagen binding (% bound) ([4]; initial conc. 300 nM) [%] | Collagen binding (% bound) ([4]; initial conc. 1000 nM) [%] | Ki (in words) ([2]; summary of Example 10) | % main peak area (after 4 h incubation in mouse plasma) [1] [%] | PPB (ranking in words) [3] | Target to background ratio (TBR) [5] |
| --- | --- | --- | --- | --- | --- | --- | --- | --- | --- |
| C[N+]1=C(/C=C/C=C/C=C2/N(CCCCCC(=O)NCCCC[C@@H]3NC(=O)CSC[C@@H](C(=O)NCCOCCOCCOCCNC(=O)COCC(N)=O)NC(=O)[C@H](Cc4ccccc4)NC(=O)[C@@H]4CSSC[C@H](NC3=O)C(=O)N[C@@H](CCCNC(=N)N)C(=O)NCC(=O)N[C@@H](CC(=O)O)C(=O)N4)c3ccccc3C2(C)C)C(C)(C)c2cc(S(=O)(=O)[O-])ccc21 [Compound 3, RGD-Cy5(1)) Dye Conjugate] ({CH2CO}-K(X1)CRGDCFC-X2; disulfide 2-6; thioether N-8) | 2.6 | – | – | – | – | – | – | highest PPB | – |
| CCN1\C(=C/C=C/C=C/C2=[N+](CCCCCC(=O)NCCOCCOCCOCCNC(=O)COCC(=O)NCCCC[C@@H]3NC(=O)CSC[C@@H](C(=O)NCCOCCOCCOCCNC(=O)COCC(N)=O)NC(=O)[C@H](Cc4ccccc4)NC(=O)[C@@H]4CSSC[C@H](NC3=O)C(=O)N[C@@H](CCCNC(=N)N)C(=O)NCC(=O)N[C@@H](CC(=O)O)C(=O)N4)c3ccc(S(=O)(=O)[O-])cc3C2(C)C)C(C)(C)c2cc(S(=O)(=O)O)ccc21 [Compound 8] | – | 92.1 | 85.9 | 56.7 | 32.7 | – | 93 | – | – |
| CC1(CCCCS(=O)(=O)[O-])C(/C=C/C=C/C=C2\N(CCCCS(=O)(=O)O)c3c(F)c(F)c(F)c(F)c3C2(C)CCCCS(=O)(=O)O)=[N+](CCCCCC(=O)NCCCC[C@@H]2NC(=O)CSC[C@@H](C(=O)NCCOCCOCCOCCNC(=O)COCC(N)=O)NC(=O)[C@H](Cc3ccccc3)NC(=O)[C@@H]3CSSC[C@H](NC2=O)C(=O)N[C@@H](CCCNC(=N)N)C(=O)NCC(=O)N[C@@H](CC(=O)O)C(=O)N3)c2c(F)c(F)c(F)c(F)c21 (stereo partly drawn) [Compound 7] | 7.4 | – | – | – | – | slightly higher Ki value | 70 | highest PPB | – |
| CC[N+]1=C(/C=C/C=C/C=C2/N(CCCCCC(=O)NCCCC[C@@H]3NC(=O)CSC[C@@H](C(=O)NCCOCCOCCOCCNC(=O)COCC(N)=O)NC(=O)[C@H](CCCNC(=N)N)NC(=O)[C@@H]4CSSC[C@H](NC3=O)C(=O)NCC(=O)N[C@@H](CC(=O)O)C(=O)N[C@@H](Cc3ccccc3)C(=O)N4)c3ccc(S(=O)(=O)O)cc3C2(C)C)C(C)(C)c2cc(S(=O)(=O)[O-])ccc21 [Compound 2, neg-RGD-[Cy5(2)] Dye Conjugate] ({CH2CO}-K(X3)CGDFCRC-X2; disulfide 2-6; thioether N-8) | – | 87 | 81.1 | 83 | – | – | – | – | 1.14 |
